Test results: patent US10392368B2, “Pyrazolo and triazolo bicyclic compounds as JAK kinase inhibitors” (THERAVANCE BIOPHARMA R&D IP, LLC, priority 2017, dated 2019)

Assays:
[1] = system: IL-2 stimulated pSTAT5 in Tall-1 T cells; experiment: Cellular JAK3 potency assay: inhibition of IL-2 stimulated pSTAT5 in Tall-1 T cells; type: cell-based, human; conditions: for Tall-1 (pIC50): IL-2 stimulated pSTAT5 in Tall-1 T cells; for IC50: Homo sapiens, TALL-1, IL-2 stimulated pSTAT5 in Tall-1 T cells, read-out: Tall-1 (pIC50) (converted)
How it was run: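 Tall-1 human T cells were preincubated with compound for 1 h at 37° C, then stimulated with IL-2 (300 ng/ml final) for 30 min. STAT5 phosphorylation in lysates was read by AlphaLisa bead emission, and IC50 from inhibition curves is given as pIC50 (mean±SD).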

JAK2 = biological target: T1, JAK2 (Homo sapiens, UniProt O60674); experiment: Biochemical JAK2 kinase assay (LanthaScreen); conditions: for Ki: read-out: JAK 2 (pKi) (converted)
T1 construct: GST; purchased Life Technologies
Procedure: (§1) A panel of four LanthaScreen JAK biochemical assays (JAK1, 2, 3 and Tyk2) were carried in a common kinase reaction buffer (50 mM HEPES, pH 7.5, 0.01% Brij-35, 10 mM MgCl2, and 1 mM EGTA). Recombinant GST-tagged JAK enzymes and a GFP-tagged STAT1 peptide substrate were obtained from Life Technologies.
(§2) Serially or discretely diluted compounds were pre-incubated with each of the four JAK enzymes and the substrate in white 384-well microplates (Corning) at ambient temperature for 1 h. ATP was subsequently added to initiate the kinase reactions in 10 μL total volume, with 1% DMSO. […] Kinase reactions were allowed to proceed for 1 hour at ambient temperature before a 10 μL preparation of EDTA (10 mM final concentration) and Tb-anti-pSTAT1 (pTyr701) antibody (Life Technologies, 2 nM final concentration) in TR-FRET dilution buffer (Life Technologies) was added. The plates were allowed to incubate at ambient temperature for 1 h before being read on the EnVision reader (Perkin Elmer).
(§3) For dose-response analysis, percent inhibition data were plotted vs. compound concentrations, and IC50 values were determined from a 4-parameter robust fit model with the Prism software (GraphPad Software). Results were expressed as pIC50 (negative logarithm of IC50) and subsequently converted to pKi (negative logarithm of dissociation constant, Ki) using the Cheng-Prusoff equation.

JAK1 = biological target: T2, JAK1 (Homo sapiens, UniProt P23458); experiment: Biochemical JAK1 kinase assay (LanthaScreen); conditions: for Ki: read-out: JAK 1 (pKi) (converted)
T2 construct: GST; purchased Life Technologies
How it was run: (§4)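 GST-tagged JAK enzyme and GFP-STAT1 peptide preincubated with compound 1 h, then ATP added; 1 h kinase reaction at ambient temperature, pH 7.5 HEPES/MgCl2 buffer, 1% DMSO. Tb-anti-pSTAT1 (pTyr701) TR-FRET, 520/495 nm ratio; IC50 from 4-parameter fit, converted to pKi via Cheng-Prusoff.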

JAK3 = biological target: T3, JAK3 (Homo sapiens, UniProt P52333); experiment: Biochemical JAK3 kinase assay (LanthaScreen); design: GST; purchased Life Technologies; conditions: for JAK3 (pKi)-JAK1 (pKi): selectivity: difference of pKi JAK3 and pKi JAK1; for Ki: read-out: JAK 3 (pKi) (converted)
T3 sequence (P52333 1-1124): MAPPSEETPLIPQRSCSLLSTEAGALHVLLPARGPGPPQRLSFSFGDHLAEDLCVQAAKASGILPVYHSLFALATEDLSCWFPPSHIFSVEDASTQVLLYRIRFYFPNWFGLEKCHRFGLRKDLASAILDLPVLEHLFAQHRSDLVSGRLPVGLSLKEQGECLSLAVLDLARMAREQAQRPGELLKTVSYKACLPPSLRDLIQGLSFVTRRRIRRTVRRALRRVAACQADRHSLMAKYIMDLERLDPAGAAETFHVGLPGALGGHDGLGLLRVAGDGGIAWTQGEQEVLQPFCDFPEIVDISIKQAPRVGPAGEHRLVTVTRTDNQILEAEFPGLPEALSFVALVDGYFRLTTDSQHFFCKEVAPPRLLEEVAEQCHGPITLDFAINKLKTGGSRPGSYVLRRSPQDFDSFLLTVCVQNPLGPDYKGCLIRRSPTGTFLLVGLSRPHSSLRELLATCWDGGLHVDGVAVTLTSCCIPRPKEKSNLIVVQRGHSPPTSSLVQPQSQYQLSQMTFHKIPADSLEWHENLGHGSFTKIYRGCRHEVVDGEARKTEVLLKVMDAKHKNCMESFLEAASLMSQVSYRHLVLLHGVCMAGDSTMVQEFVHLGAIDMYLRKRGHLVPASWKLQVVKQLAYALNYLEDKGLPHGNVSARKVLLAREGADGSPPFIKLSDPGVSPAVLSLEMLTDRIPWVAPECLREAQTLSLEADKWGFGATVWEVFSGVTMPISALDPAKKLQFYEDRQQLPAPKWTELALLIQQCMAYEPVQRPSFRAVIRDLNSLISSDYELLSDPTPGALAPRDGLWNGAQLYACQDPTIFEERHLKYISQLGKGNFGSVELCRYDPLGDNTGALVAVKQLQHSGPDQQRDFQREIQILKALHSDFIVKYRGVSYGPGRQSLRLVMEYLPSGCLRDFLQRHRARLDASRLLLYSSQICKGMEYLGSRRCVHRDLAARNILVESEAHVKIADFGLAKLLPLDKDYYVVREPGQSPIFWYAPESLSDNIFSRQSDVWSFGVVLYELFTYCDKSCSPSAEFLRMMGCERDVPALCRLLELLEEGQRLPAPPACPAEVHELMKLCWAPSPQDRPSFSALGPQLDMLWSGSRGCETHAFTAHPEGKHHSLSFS
How it was run: as §4

Tyk2 = biological target: T4, Tyk2 (Homo sapiens, UniProt P29597); experiment: Biochemical Tyk2 kinase assay (LanthaScreen); conditions: for Ki: read-out: Tyk 2 (pKi) (converted)
T4 construct: GST; purchased Life Technologies
Procedure: as §1
as §2, with “Elmer). Emission ratio signals (520 nm/495 nm) were recorded and utilized to calculate the percent inhibition values based on DMSO and background controls.” for “Elmer).”
as §3

T1 sequence (O60674 whole entry): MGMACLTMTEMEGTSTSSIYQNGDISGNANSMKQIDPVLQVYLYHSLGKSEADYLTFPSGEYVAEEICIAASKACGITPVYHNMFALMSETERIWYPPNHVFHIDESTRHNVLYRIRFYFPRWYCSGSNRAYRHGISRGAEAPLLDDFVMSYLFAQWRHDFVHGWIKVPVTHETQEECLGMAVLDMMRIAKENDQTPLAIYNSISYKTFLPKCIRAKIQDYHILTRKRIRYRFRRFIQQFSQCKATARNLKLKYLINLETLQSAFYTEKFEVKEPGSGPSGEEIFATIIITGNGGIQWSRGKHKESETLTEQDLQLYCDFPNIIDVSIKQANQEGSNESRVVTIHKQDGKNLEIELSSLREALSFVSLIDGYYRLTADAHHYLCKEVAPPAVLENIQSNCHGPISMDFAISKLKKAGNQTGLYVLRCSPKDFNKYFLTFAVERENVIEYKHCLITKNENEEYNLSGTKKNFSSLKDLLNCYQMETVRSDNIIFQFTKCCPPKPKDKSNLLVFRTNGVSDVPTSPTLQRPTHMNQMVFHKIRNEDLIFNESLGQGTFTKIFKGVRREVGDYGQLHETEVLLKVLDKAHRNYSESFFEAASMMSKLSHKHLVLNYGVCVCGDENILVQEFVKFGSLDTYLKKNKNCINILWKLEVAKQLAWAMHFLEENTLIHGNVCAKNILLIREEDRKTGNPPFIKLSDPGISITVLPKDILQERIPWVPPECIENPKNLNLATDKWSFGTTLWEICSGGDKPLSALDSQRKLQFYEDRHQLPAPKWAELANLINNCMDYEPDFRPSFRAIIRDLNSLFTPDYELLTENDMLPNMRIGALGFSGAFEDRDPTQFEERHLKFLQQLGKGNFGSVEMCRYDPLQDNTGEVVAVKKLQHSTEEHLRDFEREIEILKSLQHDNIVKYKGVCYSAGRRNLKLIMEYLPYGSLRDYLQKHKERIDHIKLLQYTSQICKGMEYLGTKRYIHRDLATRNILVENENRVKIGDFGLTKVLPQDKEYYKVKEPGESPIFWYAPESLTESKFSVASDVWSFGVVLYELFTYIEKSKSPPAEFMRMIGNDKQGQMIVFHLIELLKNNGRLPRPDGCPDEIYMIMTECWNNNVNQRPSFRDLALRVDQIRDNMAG
T2 sequence (P23458 whole entry): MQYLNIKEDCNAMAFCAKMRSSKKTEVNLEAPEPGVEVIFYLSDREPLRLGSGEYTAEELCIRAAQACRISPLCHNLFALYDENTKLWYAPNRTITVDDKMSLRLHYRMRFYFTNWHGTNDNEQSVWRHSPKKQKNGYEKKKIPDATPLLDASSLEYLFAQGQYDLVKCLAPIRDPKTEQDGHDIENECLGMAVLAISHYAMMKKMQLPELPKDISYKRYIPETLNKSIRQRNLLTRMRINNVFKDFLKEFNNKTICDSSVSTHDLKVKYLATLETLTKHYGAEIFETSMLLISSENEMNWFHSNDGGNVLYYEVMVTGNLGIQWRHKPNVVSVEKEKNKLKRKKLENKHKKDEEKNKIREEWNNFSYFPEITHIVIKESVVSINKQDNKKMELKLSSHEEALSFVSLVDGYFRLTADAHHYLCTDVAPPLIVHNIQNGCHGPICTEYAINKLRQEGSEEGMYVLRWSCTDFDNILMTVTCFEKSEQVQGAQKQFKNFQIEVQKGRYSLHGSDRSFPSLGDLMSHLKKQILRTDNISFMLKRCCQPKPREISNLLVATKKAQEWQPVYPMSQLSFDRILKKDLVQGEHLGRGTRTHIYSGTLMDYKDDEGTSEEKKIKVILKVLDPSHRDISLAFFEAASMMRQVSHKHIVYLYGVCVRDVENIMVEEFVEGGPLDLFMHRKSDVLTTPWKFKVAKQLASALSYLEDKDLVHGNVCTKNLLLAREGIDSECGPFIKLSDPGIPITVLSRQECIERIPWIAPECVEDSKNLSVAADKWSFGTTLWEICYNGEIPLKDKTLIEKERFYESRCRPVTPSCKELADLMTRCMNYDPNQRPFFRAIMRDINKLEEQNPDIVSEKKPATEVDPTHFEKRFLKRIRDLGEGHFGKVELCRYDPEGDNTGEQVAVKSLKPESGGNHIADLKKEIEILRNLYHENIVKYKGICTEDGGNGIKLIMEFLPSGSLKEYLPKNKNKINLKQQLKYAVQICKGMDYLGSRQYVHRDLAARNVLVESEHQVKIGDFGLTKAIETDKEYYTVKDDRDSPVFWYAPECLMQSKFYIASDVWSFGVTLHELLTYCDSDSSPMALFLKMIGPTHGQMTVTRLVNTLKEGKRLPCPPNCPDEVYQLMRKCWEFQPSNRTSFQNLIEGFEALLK
T4 sequence (P29597 whole entry): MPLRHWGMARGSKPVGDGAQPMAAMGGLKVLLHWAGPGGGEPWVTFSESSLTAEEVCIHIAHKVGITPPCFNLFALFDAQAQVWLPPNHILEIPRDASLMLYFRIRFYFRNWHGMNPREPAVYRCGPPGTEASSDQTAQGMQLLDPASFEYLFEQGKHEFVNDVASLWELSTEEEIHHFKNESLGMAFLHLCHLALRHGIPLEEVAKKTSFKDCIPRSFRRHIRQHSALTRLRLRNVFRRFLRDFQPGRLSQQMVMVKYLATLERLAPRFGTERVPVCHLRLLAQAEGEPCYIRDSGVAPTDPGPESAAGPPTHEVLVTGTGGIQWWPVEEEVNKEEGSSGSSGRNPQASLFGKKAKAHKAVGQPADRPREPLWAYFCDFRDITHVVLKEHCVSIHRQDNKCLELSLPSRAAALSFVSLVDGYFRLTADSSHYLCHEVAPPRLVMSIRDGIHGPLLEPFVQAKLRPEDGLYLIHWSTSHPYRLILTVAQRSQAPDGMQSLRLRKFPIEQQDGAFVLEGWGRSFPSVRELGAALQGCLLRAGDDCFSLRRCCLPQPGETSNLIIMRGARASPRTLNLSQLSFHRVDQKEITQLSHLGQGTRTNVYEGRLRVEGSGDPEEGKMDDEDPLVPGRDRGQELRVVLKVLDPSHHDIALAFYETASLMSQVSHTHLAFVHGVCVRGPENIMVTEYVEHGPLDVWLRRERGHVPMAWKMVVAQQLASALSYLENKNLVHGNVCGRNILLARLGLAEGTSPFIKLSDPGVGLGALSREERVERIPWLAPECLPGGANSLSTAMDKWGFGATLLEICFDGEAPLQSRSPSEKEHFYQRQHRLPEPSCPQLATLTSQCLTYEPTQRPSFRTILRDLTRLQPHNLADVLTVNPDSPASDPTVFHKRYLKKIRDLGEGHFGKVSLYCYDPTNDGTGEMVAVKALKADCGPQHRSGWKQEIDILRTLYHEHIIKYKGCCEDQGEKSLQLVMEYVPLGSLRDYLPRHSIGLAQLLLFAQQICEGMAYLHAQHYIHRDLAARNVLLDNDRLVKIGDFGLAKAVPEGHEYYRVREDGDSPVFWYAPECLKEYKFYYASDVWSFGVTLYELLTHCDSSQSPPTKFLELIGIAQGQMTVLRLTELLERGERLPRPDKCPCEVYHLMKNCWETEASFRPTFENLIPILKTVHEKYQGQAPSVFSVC

| SMILES | Tall-1 (pIC50) [1] | JAK 2 (pKi) (JAK2) | JAK 1 (pKi) (JAK1) | JAK 3 (pKi) (JAK3) | JAK3 (pKi)-JAK1 (pKi) (JAK3) | Tyk 2 (pKi) (Tyk2) | IC50 [1] | Ki (JAK2) | Ki (JAK1) | Ki (JAK3) | Ki (Tyk2) |
| --- | --- | --- | --- | --- | --- | --- | --- | --- | --- | --- | --- |
| C=CC(=O)N1CC[C@H](Oc2cc(-c3cc(F)c(O)cc3F)cc3[nH]ncc23)C1 [Compound 1-19] | B (a pIC50 value between 6.7 (included) and 7.5 (IC50 between 200 nM and 32 nM)) | D (a pKi value between 7 and 8 (Ki between 100 nM and 10 nM)) | E (a pKi value of 7 or below (Ki of 100 nM or above)) | B (a pKi value between 9 and 10 (Ki between 1 nM and 0.1 nM)) | A (a value of 3 or above) | E (a pKi value of 7 or below (Ki of 100 nM or above)) | – | – | – | – | – |
| C=CC(=O)N1CC[C@H](Oc2cc(-c3ccc(O)cc3)cc3[nH]nc(C)c23)C1 [Compound 1-20] | – | – | – | – | B (a value of 2.3 to 3) | – | < 31.6 nM | 10 to 100 nM | > 100 nM | 0.1 to 1 nM | > 100 nM |
| C=CC(=O)N1CC[C@H](Oc2cc(-c3ccc(O)cc3)cc3[nH]nc(NC)c23)C1 [Compound 1-21] | – | – | – | – | A (a value of 3 or above) | – | 31.6 to 200 nM | > 100 nM | > 100 nM | 0.1 to 1 nM | > 100 nM |
| C=CC(=O)N1CC[C@H](Oc2cc(-c3ccc(O)cc3)cc3[nH]nc(COC)c23)C1 [Compound 1-22] | – | – | – | – | A (a value of 3 or above) | – | 31.6 to 200 nM | 10 to 100 nM | > 100 nM | < 0.1 nM | > 100 nM |
| C=CC(=O)N1CC(Oc2nc(-c3ccc(O)cc3)nc3[nH]ncc23)CC1C (stereo not drawn) [Compound 1-24] | C (a pIC50 value between 6 and 6.7 (IC50 between 1 μM and 200 nM)) | E (a pKi value of 7 or below (Ki of 100 nM or above)) | E (a pKi value of 7 or below (Ki of 100 nM or above)) | B (a pKi value between 9 and 10 (Ki between 1 nM and 0.1 nM)) | A (a value of 3 or above) | E (a pKi value of 7 or below (Ki of 100 nM or above)) | – | – | – | – | – |
| C=CC(=O)N1C[C@@H](Oc2cc(-c3ccc(O)cc3)nc3[nH]ncc23)C[C@H]1C [Compound 1-26] | – | – | – | – | A (a value of 3 or above) | – | 31.6 to 200 nM | > 100 nM | > 100 nM | < 0.1 nM | > 100 nM |
| C=CC(=O)N1CC[C@H](Oc2nc(-c3ccc(O)c(F)c3)cc3[nH]ncc23)C1 [Compound 1-27] | – | – | – | – | A (a value of 3 or above) | – | 31.6 to 200 nM | 10 to 100 nM | > 100 nM | < 0.1 nM | > 100 nM |
| Cc1cc(O)c(F)cc1-c1cc(O[C@H]2CCN(C(=O)/C=C/CN(C)C)C2)c2cn[nH]c2c1 [Compound 1-29] | – | – | – | – | B (a value of 2.3 to 3) | – | 31.6 to 200 nM | 10 to 100 nM | 10 to 100 nM | 0.1 to 1 nM | > 100 nM |
| C=CC(=O)N1CC[C@H](Oc2cc(-c3ccc(O)cc3)nc3[nH]nc(C)c23)C1 [Compound 1-31] | – | – | – | – | A (a value of 3 or above) | – | 31.6 to 200 nM | > 100 nM | > 100 nM | < 0.1 nM | > 100 nM |
| C=CC(=O)N1CC[C@H](Oc2cc(-c3ccc(O)c(F)c3)nc3[nH]nc(C)c23)C1 [Compound 1-33] | – | – | – | – | A (a value of 3 or above) | – | 31.6 to 200 nM | > 100 nM | > 100 nM | 0.1 to 1 nM | > 100 nM |
| C=CC(=O)N1CC[C@H](Oc2nc(-c3ccc(O)cc3)cc3[nH]nc(C)c23)C1 [Compound 1-34] | – | – | – | – | A (a value of 3 or above) | – | < 31.6 nM | 10 to 100 nM | > 100 nM | 0.1 to 1 nM | > 100 nM |
| C=CC(=O)N1CC[C@H](Oc2nc(-c3ccc(O)c(F)c3)cc3[nH]nc(C)c23)C1 [Compound 1-36] | – | – | – | – | B (a value of 2.3 to 3) | – | < 31.6 nM | 10 to 100 nM | 10 to 100 nM | 0.1 to 1 nM | > 100 nM |
| C=CC(=O)N1CC[C@H](Oc2nc(-c3ccc(O)c(F)c3)nc3[nH]nc(C)c23)C1 [Compound 1-38] | – | – | – | – | A (a value of 3 or above) | – | 31.6 to 200 nM | > 100 nM | > 100 nM | < 0.1 nM | > 100 nM |
| C=CC(=O)N1CC[C@H](Oc2cc(-c3ccc(O)c(F)c3)cc3[nH]nc(SC)c23)C1 [Compound 1-40] | – | – | – | – | B (a value of 2.3 to 3) | – | 31.6 to 200 nM | > 100 nM | > 100 nM | 0.1 to 1 nM | > 100 nM |
| C=CC(=O)N1CC[C@H](Oc2cc(-c3ccc(O)c(Cl)c3)cc3[nH]nc(SC)c23)C1 [Compound 1-41] | – | – | – | – | A (a value of 3 or above) | – | 31.6 to 200 nM | > 100 nM | > 100 nM | 0.1 to 1 nM | > 100 nM |
| C=CC(=O)N1CC[C@H](Oc2cc(-c3ccc(O)cc3)cc3[nH]nc(OC)c23)C1 [Compound 1-44] | – | – | – | – | A (a value of 3 or above) | – | < 31.6 nM | > 100 nM | > 100 nM | < 0.1 nM | > 100 nM |
| C=CC(=O)N1CC[C@H](Oc2cc(-c3ccc(O)cc3)cc3[nH]nc(C#N)c23)C1 [Compound 1-45] | – | – | – | – | A (a value of 3 or above) | – | < 31.6 nM | > 100 nM | > 100 nM | < 0.1 nM | > 100 nM |
| C=CC(=O)N1CC[C@H](Oc2cc(-c3ccc(O)cc3)cc3[nH]nc(Cl)c23)C1 [Compound 1-47] | B (a pIC50 value between 6.7 (included) and 7.5 (IC50 between 200 nM and 32 nM)) | E (a pKi value of 7 or below (Ki of 100 nM or above)) | E (a pKi value of 7 or below (Ki of 100 nM or above)) | B (a pKi value between 9 and 10 (Ki between 1 nM and 0.1 nM)) | B (a value of 2.3 to 3) | E (a pKi value of 7 or below (Ki of 100 nM or above)) | – | – | – | – | – |
